Test results published in EP4509511A1, “SUBSTITUTED SPIRO-ISOXAZOLINYL LACTAMS, SALTS THEREOF AND THEIR USE AS HERBICIDALLY ACTIVE SUBSTANCES” (Bayer Aktiengesellschaft, priority 2023, dated 2025).

Tests used:
ABUTH [1] = test: Herbicidal pre-emergence action - Part I; format: in vivo, Abutilon theophrasti; details: visual grading after ca. 3 weeks vs untreated controls
Excerpt: (§1) Seeds of mono- and dicotyledonous weed plants were sown in plastic pots (double sowings with one species of mono- and one species of dicotyledonous weed plants per pot), in sandy loam, and covered with soil. The compounds according to the invention, formulated in the form of wettable powders (WP) or as emulsifiable concentrates (EC), were applied to the surface of the covering soil as aqueous suspension or emulsion, with the addition of 0.5% of an additive, at an application rate of 600 1 of water per hectare (converted). Following treatment, the pots were placed in a greenhouse and kept under optimum growth conditions for the test plants. The visual grading of the damage to the test plants was carried out after ca. 3 weeks in comparison to untreated controls (herbicidaleffectinpercent(%):100%effect=plantshavediedoff,0%effect=ascontrolplants). [formula]
(§2) Tables A1 to A12, below, show the effects of selected compounds of the general formula (I) according to table 1 on various harmful plants and an application rate corresponding to 1280 g/ha or below obtained by the experimental procedure mentioned above. Table A1: pre-emergence activity at 1280g/ha against ABUTH in %

ECHCG [2] = test: Herbicidal pre-emergence action - Part I; format: in vivo, Echinochloa crus-galli; details: 1280 g/ha, visual grading after ca. 3 weeks vs untreated controls
Excerpt: as §1, §2

MATIN [3] = test: Herbicidal pre-emergence action - Part I; format: in vivo, Matricaria inodora; details: visual grading after ca. 3 weeks vs untreated controls
Excerpt: as §1, §2

SETVI = test: Herbicidal pre-emergence action - Part I; format: in vivo, Setaria viridis; details: 1280 g/ha, visual grading after ca. 3 weeks vs untreated controls
Excerpt: as §1, §2

STEME [4] = test: Herbicidal pre-emergence action - Part I; format: in vivo, Stellaria media; details: visual grading after ca. 3 weeks vs untreated controls
Excerpt: as §1, §2

POAAN [5] = test: Herbicidal pre-emergence action - Part I; format: in vivo, Poa annua; details: visual grading after ca. 3 weeks vs untreated controls
Excerpt: as §1, §2

AMARE [6] = test: Herbicidal pre-emergence action - Part I; format: in vivo, Amaranthus retroflexus; details: visual grading after ca. 3 weeks vs untreated controls
Excerpt: as §1, §2

KCHSC [7] = test: Herbicidal pre-emergence action - Part I; format: in vivo, Kochia scoparia; details: Table A10a, 1280 g/ha, visual grading after ca. 3 weeks vs untreated controls
Excerpt: as §1, §2

DIGSA = test: Herbicidal pre-emergence action - Part I; format: in vivo, Digitaria sanguinalis; details: visual grading after ca. 3 weeks vs untreated controls
Excerpt: as §1, §2

ABUTH [8] = test: Herbicidal post-emergence action - Part I; format: in vivo, Abutilon theophrasti; details: 320 g/ha, one-leaf stage, rated visually after about 3 weeks vs untreated controls
Experimental: (§3) Seeds of mono- and dicotyledonous weed plants were placed in plastic pots in sandy loam soil (doubly sown with in each case one species of mono- or dicotyledonous weed plants per pot), covered with soil and cultivated in a greenhouse under controlled growth conditions. 2 to 3 weeks after sowing, the test plants were treated at the one-leaf stage. The compounds of the invention, formulated in the form of wettable powders (WP) or as emulsion concentrates (EC), were applied onto the green parts of the plants as aqueous suspension or emulsion with addition of 0.5% additive at a water application rate of 600 liters per hectare (converted). After the test plants had been kept in the greenhouse under optimum growth conditions for about 3 weeks, the activity of the preparations was rated visually in comparison to untreated controls. For example, 100% activity = the plants have died, 0% activity = like control plants. Tables B1 to B12, below, show the effects of selected compounds of the general formula (I) according to table 1 on various harmful plants and an application rate corresponding to 1280 g/ha or below obtained by the experimental procedure mentioned above. Table B1a: post-emergence activity at 1280g/ha against ABUTH in %

ECHCG [9] = test: Herbicidal post-emergence action - Part I; format: in vivo, Echinochloa crus-galli; details: one-leaf stage, rated visually after about 3 weeks vs untreated controls
Experimental: as §3

MATIN [10] = test: Herbicidal post-emergence action - Part I; format: in vivo, Matricaria inodora; details: one-leaf stage, rated visually after about 3 weeks vs untreated controls
Experimental: as §3

STEME [11] = test: Herbicidal post-emergence action - Part I; format: in vivo, Stellaria media; details: one-leaf stage, rated visually after about 3 weeks vs untreated controls
Experimental: as §3

POAAN [12] = test: Herbicidal post-emergence action - Part I; format: in vivo, Poa annua; details: one-leaf stage, rated visually after about 3 weeks vs untreated controls
Experimental: as §3

AMARE [13] = test: Herbicidal post-emergence action - Part I; format: in vivo, Amaranthus retroflexus; details: one-leaf stage, rated visually after about 3 weeks vs untreated controls
Experimental: as §3

KCHSC [14] = test: Herbicidal post-emergence action - Part I; format: in vivo, Kochia scoparia; details: 1280 g/ha, one-leaf stage, rated visually after about 3 weeks vs untreated controls
Experimental: as §3

VERPE [15] = test: Herbicidal post-emergence action - Part I; format: in vivo, Veronica persica; details: one-leaf stage, rated visually after about 3 weeks vs untreated controls
Experimental: as §3

ABUTH [16] = test: Herbicidal post-emergence action - Part II; format: in vivo, Abutilon theophrasti; details: 20 g/ha; Table E1b
Procedure, shortened: (§4)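 Post-emergence greenhouse test: weeds and crops in sandy loam sprayed at single-leaf stage, 2–3 weeks after sowing, with WP or EC formulations in water plus 0.5% additive at 600 l water/ha. Rates 320 g/ha or below. Visual rating after ca. 3 weeks versus untreated controls, % effect (100% = plants dead).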

AMARE [17] = test: Herbicidal post-emergence action - Part II; format: in vivo, Amaranthus retroflexus
Procedure, shortened: as §4

PHBPU = test: Herbicidal post-emergence action - Part II; format: in vivo, Pharbitis purpurea
Procedure, shortened: as §4

POLCO = test: Herbicidal post-emergence action - Part II; format: in vivo, Polygonum convolvulus; details: 20 g/ha; Table E6
Excerpt: (§5) Seeds of mono- and dicotyledonous weed plants and crop plants were sown, in plastic or organic planting pots, in sandy loam, covered with soil and grown in a greenhouse under controlled growth conditions. 2 to 3 weeks after sowing, the test plants were sprayed in the single-leaf stage. The compounds according to the invention, formulated in form of wettable powders (WP) or as emulsifiable concentrates (EC), were sprayed onto the green plant parts as aqueous suspension or emulsion, with the addition of 0.5% of an additive, at an application rate of 600 1 of water/ha (converted). The test plants were placed in the greenhouse for ca. 3 weeks under optimum growth conditions, and then the effect of the preparations was assessed visually in comparison with untreated controls (herbicidal effect in percent (%): 100% effect = plants have died off, 0% effect = as control plants). Tables E1 to E10 below show the effects of selected compounds of the general formula (I) according to table 1 on various harmful plants and an application rate corresponding to 320 g/ha or below obtained by the experimental procedure mentioned above. Table E1a: post-emergence activity at 5g/ha against ABUTH in %

VERPE [18] = test: Herbicidal post-emergence action - Part II; format: in vivo, Veronica persica; details: 20 g/ha; Table E8b
Procedure, shortened: as §4

VIOTR = test: Herbicidal post-emergence action - Part II; format: in vivo, Viola tricolor
Procedure, shortened: as §4

ZEAMX = test: Post-emergence effects on crop plants; format: in vivo, Zea mays; details: crop plant
Procedure, shortened: (§6)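 Crop plants were grown in sandy loam in the greenhouse and sprayed at the single-leaf stage, 2–3 weeks after sowing, with WP or EC formulations plus 0.5% additive in 600 l water/ha, at rates of 320 g/ha or below. Injury was scored visually about 3 weeks later as % effect versus untreated controls (100% = plants dead).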

TRZAS = test: Post-emergence effects on crop plants; format: in vivo, Triticum aestivum; details: crop plant
Procedure, shortened: as §6

BRSNW = test: Post-emergence effects on crop plants; format: in vivo, Brassica napus; details: 5 g/ha; Table F5a; crop plant
Excerpt: as §5, with “F1” for “E1”, “F5” for “E10”, “crop” for “harmful”, “[…]:” for “E1a:”, “ZEAMX” for “ABUTH”

N#Cc1ncccc1C1=NOC2(CCN(Cc3cccc(F)c3F)C2=O)C1 (racemic) [Compound I-41]
pre-emergence activity at 1280g/ha against ABUTH in % (ABUTH [1]): 100% | pre-emergence activity at 1280g/ha against ECHCG in % (ECHCG [2]): 100% | pre-emergence activity at 320g/ha against MATIN in % (MATIN [3]; 320 g/ha): 90% | pre-emergence activity at 1280g/ha against MATIN in % (MATIN [3]; 1280 g/ha): 100% | pre-emergence activity at 1280g/ha and against SETVI in % (SETVI): 100% | pre-emergence activity at 320g/ha against STEME in % (STEME [4]; 320 g/ha): 90% | pre-emergence activity at 1280g/ha against STEME in % (STEME [4]; 1280 g/ha): 90% | pre-emergence activity at 320g/ha and against POAAN in % (POAAN [5]; 320 g/ha): 100% | pre-emergence activity at 1280g/ha and against POAAN in % (POAAN [5]; 1280 g/ha): 100% | pre-emergence activity at 320g/ha against AMARE in % (AMARE [6]; 320 g/ha): 90% | pre-emergence activity at 1280g/ha against AMARE in % (AMARE [6]; 1280 g/ha): 90% | pre-emergence activity at 1280g/ha against KCHSC in % (KCHSC [7]): 90% | pre-emergence activity at 320g/ha against DIGSA in % (DIGSA; 320 g/ha): 90% | pre-emergence activity at 1280g/ha against DIGSA in % (DIGSA; 1280 g/ha): 100% | post-emergence activity at 320g/ha against ABUTH in % (ABUTH [8]): 100% | post-emergence activity at 320g/ha against ECHCG in % (ECHCG [9]; 320 g/ha): 90% | post-emergence activity at 1280g/ha against ECHCG in % (ECHCG [9]; 1280 g/ha): 100% | post-emergence activity at 320g/ha against MATIN in % (MATIN [10]; 320 g/ha): 100% | post-emergence activity at 1280g/ha against MATIN in % (MATIN [10]; 1280 g/ha): 100% | post-emergence activity at 80g/ha against STEME in % (STEME [11]; 80 g/ha): 100% | post-emergence activity at 320g/ha against STEME in % (STEME [11]; 320 g/ha): 100% | post-emergence activity at 1280g/ha against STEME in % (STEME [11]; 1280 g/ha): 100% | post-emergence activity at 80g/ha against POAAN in % (POAAN [12]; 80 g/ha): 90% | post-emergence activity at 320g/ha against POAAN in % (POAAN [12]; 320 g/ha): 90% | post-emergence activity at 1280g/ha against POAAN in % (POAAN [12]; 1280 g/ha): 90% | post-emergence activity at 80g/ha against AMARE in % (AMARE [13]; 80 g/ha): 90% | post-emergence activity at 320g/ha against AMARE in % (AMARE [13]; 320 g/ha): 90% | post-emergence activity at 1280g/ha against AMARE in % (AMARE [13]; 1280 g/ha): 100% | post-emergence activity at 1280g/ha against KCHSC in % (KCHSC [14]): 90% | post-emergence activity at 320g/ha against VERPE in % (VERPE [15]; 320 g/ha): 90% | post-emergence activity at 1280g/ha against VERPE in % (VERPE [15]; 1280 g/ha): 100%

Cc1ccsc1C1=NOC2(CCN(Cc3sc(Cl)nc3C)C2=O)C1 (racemic) [Compound I-48]
pre-emergence activity at 1280g/ha against ABUTH in % (ABUTH [1]): 100%

COC(=O)CN1CCC2(CC(c3cc(-n4c(=O)cc(C(F)(F)F)n(C)c4=O)c(F)cc3Cl)=NO2)C1=O (racemic) [Compound I-58]
post-emergence activity against ABUTH (ABUTH [16]): 90% | post-emergence activity against AMARE (AMARE [17]; 5 g/ha, Table E2a): 80% | post-emergence activity against AMARE (AMARE [17]; 20 g/ha, Table E2b): 100% | post-emergence activity against PHBPU (PHBPU; 5 g/ha, Table E5a): 90% | post-emergence activity against PHBPU (PHBPU; 20 g/ha, Table E5b): 100% | post-emergence activity against POLCO (POLCO): 100% | post-emergence activity against VERPE (VERPE [18]): 100% | post-emergence activity against VIOTR (VIOTR; 5 g/ha, Table E9a): 80% | post-emergence activity against VIOTR (VIOTR; 20 g/ha, Table E9b): 100% | post-emergence activity against ZEAMX (ZEAMX; 5 g/ha, Table F1a): 10% | post-emergence activity against ZEAMX (ZEAMX; 20 g/ha, Table F1b): 20% | post-emergence activity against TRZAS (TRZAS; 5 g/ha, Table F2a): 10% | post-emergence activity against TRZAS (TRZAS; 20 g/ha, Table F2b): 20% | post-emergence activity against BRSNW (BRSNW): 0%
